PubChem BioAssay (NCI)
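Exposure lasted 48 hours, with cells grown in 96-well plates and compounds tested at five concentrations. At the GI50, growth is halved. TGI denotes the concentration required for complete inhibition of growth.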

Experiments:
Experiment in all cases: DTP human tumour cell line panel, 48 h
SW-620 colon = test system: SW-620 colon
HCC-2998 colon = test system: HCC-2998 colon
ACHN renal = test system: ACHN renal
SK-MEL-5 melanoma = test system: SK-MEL-5 melanoma
SK-OV-3 ovarian = test system: SK-OV-3 ovarian
M14 melanoma = test system: M14 melanoma
CAKI-1 renal = test system: CAKI-1 renal
SNB-19 CNS = test system: SNB-19 CNS
HOP-92 NSCLC = test system: HOP-92 NSCLC
OVCAR-5 ovarian = test system: OVCAR-5 ovarian
LOX IMVI melanoma = test system: LOX IMVI melanoma
SN12C renal = test system: SN12C renal
NCI-H226 lung = test system: NCI-H226 lung
HCT-116 colon = test system: HCT-116 colon
SR leukemia = test system: SR leukemia
SK-MEL-2 melanoma = test system: SK-MEL-2 melanoma
KM12 colon = test system: KM12 colon
IGROV1 ovarian = test system: IGROV1 ovarian
SF-268 CNS = test system: SF-268 CNS
HOP-62 NSCLC = test system: HOP-62 NSCLC
CCRF-CEM leukemia = test system: CCRF-CEM leukemia
A549 NSCLC = test system: A549 NSCLC
OVCAR-8 ovarian = test system: OVCAR-8 ovarian
UO-31 renal = test system: UO-31 renal
K-562 leukemia = test system: K-562 leukemia
SK-MEL-28 melanoma = test system: SK-MEL-28 melanoma
SF-295 CNS = test system: SF-295 CNS
NCI-H23 lung = test system: NCI-H23 lung
SNB-78 CNS = test system: SNB-78 CNS
LXFL 529 NSCLC = test system: LXFL 529 NSCLC
TK-10 renal = test system: TK-10 renal
HT29 colon = test system: HT29 colon
UACC-62 melanoma = test system: UACC-62 melanoma
UACC-257 melanoma = test system: UACC-257 melanoma
NCI-H460 lung = test system: NCI-H460 lung
DMS 273 small cell lung = test system: DMS 273 small cell lung
MOLT-4 leukemia = test system: MOLT-4 leukemia
786-0 renal = test system: 786-0 renal
EKVX NSCLC = test system: EKVX NSCLC
NCI-H522 lung = test system: NCI-H522 lung
RXF-631 renal = test system: RXF-631 renal
HL-60(TB) leukemia = test system: HL-60(TB) leukemia
RXF 393 renal = test system: RXF 393 renal
U251 CNS = test system: U251 CNS
XF 498 CNS = test system: XF 498 CNS
HCT-15 colon = test system: HCT-15 colon
A498 renal = test system: A498 renal
DMS 114 small cell lung = test system: DMS 114 small cell lung
COLO 205 colon = test system: COLO 205 colon
M19-MEL melanoma = test system: M19-MEL melanoma
DLD-1 colon = test system: DLD-1 colon
OVCAR-4 ovarian = test system: OVCAR-4 ovarian
MALME-3M melanoma = test system: MALME-3M melanoma
SNB-75 CNS = test system: SNB-75 CNS
SF-539 CNS = test system: SF-539 CNS
KM20L2 colon = test system: KM20L2 colon
OVCAR-3 ovarian = test system: OVCAR-3 ovarian
RPMI-8226 leukemia = test system: RPMI-8226 leukemia

CN=c1ssc(/N=C(\SC)N(C)C)[n+]1C
TGI (SW-620 colon): > 100000 nM
TGI (HCC-2998 colon): > 100000 nM
TGI (ACHN renal): > 100000 nM
TGI (SK-MEL-5 melanoma): > 100000 nM
TGI (SK-OV-3 ovarian): > 100000 nM
TGI (M14 melanoma): > 100000 nM
TGI (CAKI-1 renal): > 100000 nM
TGI (SNB-19 CNS): > 100000 nM
TGI (HOP-92 NSCLC): > 100000 nM
TGI (OVCAR-5 ovarian): > 100000 nM
TGI (LOX IMVI melanoma): > 100000 nM
TGI (SN12C renal): > 100000 nM
TGI (NCI-H226 lung): > 100000 nM
TGI (HCT-116 colon): > 100000 nM
TGI (SR leukemia): > 100000 nM
TGI (SK-MEL-2 melanoma): > 100000 nM
TGI (KM12 colon): > 100000 nM
TGI (IGROV1 ovarian): > 100000 nM
TGI (SF-268 CNS): > 100000 nM
TGI (HOP-62 NSCLC): > 100000 nM
TGI (CCRF-CEM leukemia): > 100000 nM
TGI (A549 NSCLC): > 100000 nM
TGI (OVCAR-8 ovarian): > 100000 nM
TGI (UO-31 renal): > 100000 nM
TGI (K-562 leukemia): > 100000 nM
TGI (SK-MEL-28 melanoma): > 100000 nM
TGI (SF-295 CNS): > 100000 nM
TGI (NCI-H23 lung): > 100000 nM
TGI (SNB-78 CNS): > 100000 nM
TGI (LXFL 529 NSCLC): > 100000 nM
TGI (TK-10 renal): > 100000 nM
TGI (HT29 colon): > 100000 nM
TGI (UACC-62 melanoma): > 100000 nM
TGI (UACC-257 melanoma): > 100000 nM
TGI (NCI-H460 lung): > 100000 nM
TGI (DMS 273 small cell lung): > 100000 nM
TGI (MOLT-4 leukemia): > 100000 nM
TGI (786-0 renal): > 100000 nM
TGI (EKVX NSCLC): > 100000 nM
TGI (NCI-H522 lung): > 100000 nM
TGI (RXF-631 renal): > 100000 nM
TGI (HL-60(TB) leukemia): > 100000 nM
TGI (RXF 393 renal): > 100000 nM
TGI (U251 CNS): > 100000 nM
TGI (XF 498 CNS): > 100000 nM
TGI (HCT-15 colon): > 100000 nM

CCC[CH2][Sn]1([CH2]CCC)[O]CC(CN2CCCCC2)[O]1 (configuration not stated)
GI50 (SW-620 colon): 137 nM
TGI (SW-620 colon): 388 nM
GI50 (A498 renal): 276 nM
TGI (A498 renal): 785 nM
GI50 (HCC-2998 colon): 486 nM
TGI (HCC-2998 colon): 1870 nM
GI50 (DMS 114 small cell lung): 156 nM
TGI (DMS 114 small cell lung): 654 nM
GI50 (ACHN renal): 269 nM
TGI (ACHN renal): 808 nM
GI50 (SK-MEL-5 melanoma): 582 nM
TGI (SK-MEL-5 melanoma): 1910 nM
GI50 (SK-OV-3 ovarian): 1300 nM
TGI (SK-OV-3 ovarian): 2810 nM
GI50 (COLO 205 colon): 273 nM
TGI (COLO 205 colon): 883 nM
GI50 (M14 melanoma): 336 nM
TGI (M14 melanoma): 1330 nM
GI50 (CAKI-1 renal): 51.2 nM
TGI (CAKI-1 renal): 333 nM
GI50 (SNB-19 CNS): 330 nM
TGI (SNB-19 CNS): 948 nM
GI50 (HOP-92 NSCLC): 193 nM
TGI (HOP-92 NSCLC): 885 nM
GI50 (OVCAR-5 ovarian): 1530 nM
TGI (OVCAR-5 ovarian): 2860 nM
GI50 (LOX IMVI melanoma): 179 nM
TGI (LOX IMVI melanoma): 485 nM
GI50 (SN12C renal): 356 nM
TGI (SN12C renal): 1430 nM
GI50 (NCI-H226 lung): 1630 nM
TGI (NCI-H226 lung): 3120 nM
GI50 (HCT-116 colon): 892 nM
TGI (HCT-116 colon): 2130 nM
GI50 (M19-MEL melanoma): 477 nM
TGI (M19-MEL melanoma): 1730 nM
GI50 (SR leukemia): 199 nM
TGI (SR leukemia): 619 nM
GI50 (SK-MEL-2 melanoma): 185 nM
TGI (SK-MEL-2 melanoma): 422 nM
GI50 (DLD-1 colon): 394 nM
TGI (DLD-1 colon): 1850 nM
GI50 (KM12 colon): 634 nM
TGI (KM12 colon): 2100 nM
GI50 (OVCAR-4 ovarian): 226 nM
TGI (OVCAR-4 ovarian): 1430 nM
GI50 (IGROV1 ovarian): 1120 nM
TGI (IGROV1 ovarian): 2410 nM
GI50 (SF-268 CNS): 295 nM
TGI (SF-268 CNS): 1340 nM
GI50 (HOP-62 NSCLC): 1610 nM
TGI (HOP-62 NSCLC): 3050 nM
GI50 (CCRF-CEM leukemia): 117 nM
TGI (CCRF-CEM leukemia): 600 nM
GI50 (A549 NSCLC): 1990 nM
TGI (A549 NSCLC): 3810 nM
GI50 (OVCAR-8 ovarian): 283 nM
TGI (OVCAR-8 ovarian): 873 nM
GI50 (UO-31 renal): 954 nM
TGI (UO-31 renal): 2140 nM
GI50 (K-562 leukemia): 109 nM
TGI (K-562 leukemia): 744 nM
GI50 (SK-MEL-28 melanoma): 685 nM
TGI (SK-MEL-28 melanoma): 1930 nM
GI50 (SF-295 CNS): 309 nM
TGI (SF-295 CNS): 1320 nM
GI50 (NCI-H23 lung): 137 nM
TGI (NCI-H23 lung): 343 nM
GI50 (MALME-3M melanoma): 62.8 nM
TGI (MALME-3M melanoma): 616 nM
GI50 (SNB-78 CNS): 266 nM
TGI (SNB-78 CNS): 761 nM
GI50 (SNB-75 CNS): 197 nM
TGI (SNB-75 CNS): 731 nM
GI50 (SF-539 CNS): 391 nM
TGI (SF-539 CNS): 1500 nM
GI50 (LXFL 529 NSCLC): 76.2 nM
TGI (LXFL 529 NSCLC): 263 nM
GI50 (TK-10 renal): 242 nM
TGI (TK-10 renal): 897 nM
GI50 (HT29 colon): 569 nM
TGI (HT29 colon): 1880 nM
GI50 (UACC-62 melanoma): 301 nM
TGI (UACC-62 melanoma): 1300 nM
GI50 (UACC-257 melanoma): 309 nM
TGI (UACC-257 melanoma): 1050 nM
GI50 (NCI-H460 lung): 1100 nM
TGI (NCI-H460 lung): 2290 nM
GI50 (DMS 273 small cell lung): 271 nM
TGI (DMS 273 small cell lung): 1250 nM
GI50 (MOLT-4 leukemia): 158 nM
TGI (MOLT-4 leukemia): 646 nM
GI50 (786-0 renal): 291 nM
TGI (786-0 renal): 1010 nM
GI50 (EKVX NSCLC): 284 nM
TGI (EKVX NSCLC): 1920 nM
GI50 (NCI-H522 lung): 48.7 nM
TGI (NCI-H522 lung): 176 nM
GI50 (KM20L2 colon): 852 nM
TGI (KM20L2 colon): 2210 nM
GI50 (RXF-631 renal): 124 nM
TGI (RXF-631 renal): 248 nM
GI50 (HL-60(TB) leukemia): 68.3 nM
TGI (HL-60(TB) leukemia): 337 nM
GI50 (OVCAR-3 ovarian): 271 nM
TGI (OVCAR-3 ovarian): 821 nM
GI50 (RXF 393 renal): 299 nM
TGI (RXF 393 renal): 542 nM
GI50 (U251 CNS): 285 nM
TGI (U251 CNS): 1110 nM
GI50 (RPMI-8226 leukemia): 136 nM
TGI (RPMI-8226 leukemia): 484 nM
GI50 (XF 498 CNS): 121 nM
TGI (XF 498 CNS): 264 nM
GI50 (HCT-15 colon): 460 nM
TGI (HCT-15 colon): 1670 nM
